Data reported in patent US20040023924A1, “Use of xyloglucan polymers and oligomers, and derivative compounds, as phytosanitary products and biofertilizers” (priority 2000, published 2004).

Tests used:
Assay type in all cases: cell-based, Acer pseudoplatanus L.
[1] = test system: 1,4 β-D-glucanase (EC 3.2.1.4); experiment: Induction of a 1,4 β-D-glucanase response in elicited cells; conditions: elicited cells; cycloheximide (1 μM); late response
Procedure: (§1) Vegetable material: Acer pseudoplatanus L Cells in Suspension
(§2) Test: 2.10^6 Acer pseudoplatanus L. cells were elicited under circular stirring (80 rpm), in 25 ml of culture medium (without 2,4-D) by 50 nM of 2′-fucosyl lactose (compound A) or 50 nM of methyl α-L-Fuc (1→2) β-D-Gal (1→2) β-D-Xyl trisaccharide (compound B)(synthesized according to Lopez et al., 1994) or for a variable time (0 to 42 hours) in the presence or not in the presence of an effector: cycloheximide (1 μM), okadaic acid (5 nM), staurosporine (500 nM), or boroglycine (500 nM). The elicitation experiment is stopped by putting the cells in ice. The cells recovered after decantation and taken up in approximately 1 ml of elicitation buffer are the subject of a specific protein extraction.
(§3) D-glycosylhydrolase extraction. The enzyme extracts are prepared from elicited or non-elicited cells. The cells are homogenized at 0° C. in Tris-HCl buffer (50 mM pH 7.2) containing 1 M of NaCl with a Vibracell™ Bioblock sonicator, maximum power, for 3 times 1 minute. The homogenates are centrifuged at 4° C. (12000 g, 15 minutes) then dialysed and concentrated on Ultrafree™ Millipore ultrafiltration units (cut-off threshold 10 kDa). The retentates, taken up in distilled water, are crude extracts.
(§4) 1,4 β-D-glucanase activity assay. This is based on colorimetric assay (ferricyanide test of Kidby and Davidson (1973) of the cellopentaose substrate reducing units released during the hydrolysis. The reaction medium contains the enzyme extract (1 μg of proteins), reduced cellopentaose (4 μM) in 100 μl of sodium acetate buffer (0.1 M), pH 5.0); the enzymatic reaction at 40° C. develops over a variable time (1 to 3 hours).
(§5) Evaluation of the experimental data. At least 2 kinetics were carried out per sample, and per set of experiments. The reaction rate (ΔA410 minutes^−1 for example) is obtained by linear regression from 4 kinetic curves. The results are expressed by the ratio R (enzymatic activity in elicited cells/enzymatic activity in non-elicited control cells).

[2] = test system: 1,3 β-D-glucanase (EC 3.2.1.39); experiment: Induction of a 1,3 β-D-glucanase response in elicited cells; conditions: elicited cells; cycloheximide (1 μM); late response
Procedure: as §1, §2, §3
as §4, with “1,3” for “1,4”, “the” for “the cellopentaose”, “units (laminarin or laminarin hexamer)” for “units”, “proteins), the substrate (5 μM of” for “proteins),”, “laminarin hexamer)” for “cellopentaose (4 μM)”
as §5

glycosylhydrolases = experiment: Effect of effectors on the glycosylhydrolase elicitation responses; conditions: okadaic acid 5 nM, boroglycine 500 nM; for Early glycosylhydrolase elicitation responses in the presence of the effector: cycloheximide 1 μM, modulation with the exception of 1,3 β-D-glucanase activity
Procedure: as §2, §3, §5

[3] = test system: Phospholipase D (E.C: 3.1.4.4); experiment: Elicitation of phospholipase D activity (NBD-PE fluorescence); conditions: methyl jasmonate 0 to 5 nM; 2′-fucosyl lactose 1 nM; dose-dependent
Text: Vegetable material: Acer pseudoplatanus L. cells in Suspension
Phospholipase D (E.C: 3.1.4.4) (Plase D) activity: this is a phosphatidylcholine phosphatidohydrolase which releases the O-R3 group, according to the diagram below. To the extent that O-R3 is marked (a fluorochrome for example), quantifying this group is equivalent to assaying Plase D activity. For the experiments the substrate used is phosphatidylcholine conjugated to a fluorochrome, i.e. the product nitrobenzoxadiazole phosphoethanolamine (NBD-PE). The retained excitation and emission wavelengths of the fluorochrome are 460 nm and 534 nm respectively. [drawing 5]
Principle: assaying Plase D activity is equivalent to estimating the fluorescence variation at 534 nm of a reaction medium with a spectrofluorimeter (Perkin Elmer).
Test: the reaction medium in a microtitration plate well is as follows: 1.3 10^7 Acer pseudoplatanus L. cells are incubated in a 50 mM HEPES buffer, pH 6.8 enriched with CaCl2 (1 μM), ATP (2 μM), octyl-D-glucoside 50 μM, GTP (6 μM) in the presence of the NBD-PE substrate (4 μM), in the presence or absence of an elicitor (0-100 nM): 2′-fucosyl-lactose (FL), compound A; XXFGol, compound B, in the presence or not in the presence of a methyl jasmonate effector (0-5 nM). The Plase D activity assay is carried out by measuring the fluorescence at 534 nm.
Evaluation of the experimental data. For each sample at least three kinetics are recorded; the Plase D activity is given by the slope of the regression curve. The results are expressed by Δ F534 min^−1. One point on the graph corresponds to the linear regression treatment of at least 2 kinetic curves originating from 2 different samples.
The Plase D elicitation response is evaluated according to the fluorescence variation at […]; the 100% reference value corresponds to the fluorescence in the controls (non-elicited cells)

| Molecule | 1,4 β-D-glucanase late response R in the presence of cycloheximide [1] | 1,3 β-D-glucanase late response R in the presence of cycloheximide [2] | Early glycosylhydrolase elicitation responses in the presence of the effector (glycosylhydrolases) | Plase D elicitation: methyl jasmonate versus 2′-fucosyl lactose [3] | Late glycosylhydrolase elicitation responses in the presence of the effector (glycosylhydrolases) |
| --- | --- | --- | --- | --- | --- |
| C[C@@H]1C[C@@H]([C@H](O)CC2CC(=O)NC(=O)C2)C(=O)[C@@H](C)C1 [cycloheximide, reference compound] | ~2 | ~3 | maintained | – | – |
| CC/C=C\CC1C(=O)CCC1CC(=O)OC (centres unmarked) [methyl jasmonate, reference compound] | – | – | – | antagonistic | – |
| C=C1[C@@H](O)[C@@H]2O[C@]3(CC[C@H](/C=C/[C@@H](C)[C@@H]4CC(C)=C[C@@]5(O[C@H](C[C@@](C)(O)C(=O)O)CC[C@H]5O)O4)O3)CC[C@H]2O[C@@H]1[C@@H](O)C[C@H](C)[C@H]1O[C@@]2(CCCCO2)CC[C@H]1C [okadaic acid] | – | – | modulated | – | not affected |
| boroglycine | – | – | modulated | – | not affected |
